Experimental data taken from US12655437B2, “Compositions and methods for modulating the gastrointestinal tract using bile salt hydrolases” (North Carolina State University, priority 2019, dated 2026).

Experiments:
L. acidophilus ΔbshAB = test: Growth of L. acidophilus bsh mutants in MRS media supplemented with bile acids; format: cell-based, Lactobacillus acidophilus
Procedure: FIG. 12: L. acidophilus bshA and bshB contribute to bile acid detoxification in a substrate dependent manner. Growth of BSH mutants in the presence of bile acids. To evaluate the role of BSH activity during L. acidophilus growth, single and double BSH mutants were grown in MRS media supplemented with bile acids and growth was measured by OD600 nm.
FIGS. 13A-13G: L. acidophilus bshA and bshB contribute to bile acid detoxification in a substrate and concentration dependent manner.
FIGS. 12-14 include representative results of experiments conducted to evaluate the role of BSH activity during L. acidophilus growth. […] The L. acidophilus strains with deletion in bshA, bshB, and bshAB were tested in plate assays and growth curves were determined. The ΔbshA, ΔbshB, and ΔbshAB L. acidophilus and L. gasseri strains were grown in the presence of conjugated bile acids to test BSH contributions to bile acid detoxification. FIG. 12 provides growth curves of L. acidophilus mutants grown in a variety of bile acid concentrations. As shown, single and double BSH mutants (ΔbshA and ΔbshB) were grown in MRS media supplemented with bile acids.
Error bars represent s.d. from n=4 independent experiments. Dashed lined denotes the approximate starting CFUs/mL at 0 h. Exogenous recombinant LaBSHa and LaBSHb (LaBSHab) or LgBSHa and LgBSHb (LgBSHab) were supplemented to cultures in equimolar amounts to L. acidophilus ΔbshAB or L. gasseri ΔbshAB growths to functionally complement ΔbshAB strains.

L. gasseri ΔbshAB = test: Growth of L. gasseri bsh mutants in MRS media supplemented with bile acids; format: cell-based, Lactobacillus gasseri
Procedure: Error bars represent standard deviation (s.d.) from n=4 independent experiments. Dashed lined denotes the approximate starting CFUs/mL at 0 h. Exogenous recombinant LaBSHa and LaBSHb (LaBSHab) or LgBSHa and LgBSHb (LgBSHab) were supplemented to cultures in equimolar amounts to (A) L. acidophilus ΔbshAB or (B) L. gasseri ΔbshAB growths to functionally complement ΔbshAB strains.
The L. acidophilus strains with deletion in bshA, bshB, and bshAB were tested in plate assays and growth curves were determined. The ΔbshA, ΔbshB, and ΔbshAB L. acidophilus and L. gasseri strains were grown in the presence of conjugated bile acids to test BSH contributions to bile acid detoxification. FIG. 12 provides growth curves of L. acidophilus mutants grown in a variety of bile acid concentrations.

C. difficile [1] = test: Growth of C. difficile anaerobically in BHIS medium supplemented with bile acids and purified BSH; format: cell-based, Clostridioides difficile; conditions: BHIS media supplemented with the bile acid alone
Procedure: FIGS. 22A-22C: BSH specificity can leveraged to inhibit Clostridioides difficile in a conjugated bile acid substrate-dependent manner. (A) Recombinantly expressed and purified L. johnsonii BSHs were assayed for deconjugation with GCDCA and TCDCA. Specific activities for each BSH were determined by quantifying the rate of amino acid release by Ninhydrin assay. (B, C) Growth of C. difficile anaerobically in BHIS medium supplemented with GCDCA, TCDCA, or CDCA in combination with purified LjoBSHa or LjoBSHc.
As shown in FIGS. 9-11, recombinant BHSs were overexpressed and purified to homogeneity, and experiments were conducted to evaluate their activity. Two recombinant BSH enzymes were used for this assay. […] TCDCA was chosen as a conjugated bile acid to be used in the growth assays due to C. difficile's sensitivity to the CDCA that is released from BSH activity. […] A high dosage of LjoBSHa is needed to overcome its catalytic deficiency (FIG. 9).
TCDCA was chosen as a conjugated bile acid to be used in this growth (FIGS. 22B-22C) assay due to C. difficile's sensitivity to the CDCA that is released from BSH activity. […] A high dosage of LjoBSHa is needed to overcome its catalytic deficiency.

C. difficile [2] = conditions: cited from earlier work

C[C@H](CCC(=O)NCCS(=O)(=O)O)[C@H]1CC[C@H]2[C@@H]3CC[C@@H]4C[C@H](O)CC[C@]4(C)[C@H]3C[C@H](O)[C@]12C [TDCA, taurodeoxycholate]
growth of L. acidophilus ΔbshAB (L. acidophilus ΔbshAB; 5 mM bile acid in MRS): significantly inhibited

C[C@H](CCC(=O)NCC(=O)O)[C@H]1CC[C@H]2[C@@H]3CC[C@@H]4C[C@H](O)CC[C@]4(C)[C@H]3C[C@H](O)[C@]12C [GDCA, glycodeoxycholate]
growth of L. gasseri ΔbshAB (L. gasseri ΔbshAB; 1.25 mM bile acid in MRS): significantly inhibited
growth of L. acidophilus ΔbshAB (L. acidophilus ΔbshAB; 2.5 mM bile acid in MRS): significantly inhibited

C[C@H](CCC(=O)O)[C@H]1CC[C@H]2[C@@H]3[C@H](O)C[C@@H]4C[C@H](O)CC[C@]4(C)[C@H]3CC[C@]12C [CDCA, chendeoxycholate]
C. difficile growth (C. difficile [1]): complete inhibition
C. difficile spore germination (C. difficile [2]): inhibits
C. difficile vegetative cells (C. difficile [2]): kills

C[C@H](CCC(=O)NCC(=O)O)[C@H]1CC[C@H]2[C@@H]3[C@H](O)C[C@@H]4C[C@H](O)CC[C@]4(C)[C@H]3CC[C@]12C [GCDCA, glycochendeoxycholate]
growth of L. gasseri ΔbshAB (L. gasseri ΔbshAB; 2.5 mM bile acid in MRS): significantly inhibited
growth of L. acidophilus ΔbshAB (L. acidophilus ΔbshAB; 2.5 mM bile acid in MRS): significantly inhibited

C[C@H](CCC(=O)NCC(=O)O)[C@H]1CC[C@H]2[C@@H]3[C@H](O)C[C@@H]4C[C@H](O)CC[C@]4(C)[C@H]3C[C@H](O)[C@]12C [GCA, glycocholate]
growth of L. gasseri ΔbshAB (L. gasseri ΔbshAB; 5 mM bile acid in MRS): significantly less inhibited
growth of L. acidophilus ΔbshAB (L. acidophilus ΔbshAB; 5 mM bile acid in MRS): less inhibited

C[C@H](CCC(=O)NCCS(=O)(=O)O)[C@H]1CC[C@H]2[C@@H]3[C@H](O)C[C@@H]4C[C@H](O)CC[C@]4(C)[C@H]3CC[C@]12C [TCDCA, taurochendeoxycholate]
C. difficile growth (C. difficile [1]): no inhibition of growth
effect on C. difficile (C. difficile [2]; bile acid alone): does not affect C. difficile
growth of L. acidophilus ΔbshAB (L. acidophilus ΔbshAB; 5 mM bile acid in MRS): less inhibited
